Data reported in patent US20090163551A1, “Compositions and Methods for Treating Diseases” (Novartis AG, priority 2006, published 2009).
“Also recorded” adds a separate entry of the source. Counter-ions that a name gives are not always drawn.

Columns and labels:
[1] = tested on: 5-HT receptors; assay: 5-HT concentration-response curve in antral circular muscle strips; type: cell-based, rat; conditions: 5-HT contraction
[2] = tested on: circular muscle strips from the gastric antrum; assay: Contractile responses to EFS of enteric nerves in antral muscle strips of pretreated indomethacin rats; type: in vivo, rat; conditions: for Regression Analysis Slope: linear regression of EFS (0.5 ms, 1-15 Hz) frequency-response, indomethacin-treated rats, mean ± SEM, 5-6 rats per group
[3] = tested on: circular muscle strips from the gastric antrum; assay: Contractile response to KCl (80 mM) in antral circular muscle strips of pretreated indomethacin rats; type: in vivo, rat; conditions: strips from indomethacin-treated rats pretreated with tegaserod 1 mg/kg, omeprazole 20 mg/kg, vs vehicle
[4] = tested on: rat model of indomethacin-induced gastric mucosal ulceration; assay: Indomethacin-induced gastric mucosal ulceration (ulceration index); type: in vivo; conditions: rats; tegaserod 1 mg/kg, omeprazole 20 mg/kg i.p. b.i.d. one day before and 30 min prior to indomethacin 50 mg/kg intragastric; 6 h post-indomethacin; vs vehicle
Procedure: Male Sprague-Dawley rats (Charles River, Laboratories, Wilmington, Mass.) weighing 250-300 g were housed two in a cage at standard conditions (21-23° C., controlled humidity, 12 hour light/dark cycle). The animals were allowed to acclimate for one week prior to initiation of drug treatment. The experimental procedures were approved by the Animal Care and Use Committees at the V.A. Medical Center and the University of Oklahoma Health Science Center, Oklahoma City, Okla.
(§1) Prior to the experiment the rats were fasted overnight with free access to water. On the day of experiment the rats received intragastric gavage of 50 mg/kg indomethacin dissolved in 2% NaCO3 and brought to a volume of 1.5 mL in saline (pH 6.8). Indomethacin was given at 7:30 A.M. and the animals were then placed in their home cage with free access to food and water. The rats were euthanized 6 h post-indomethacin infusion, the stomach was isolated and placed in Ca^2+-free Krebs buffer aerated with 95% O2 and 5% CO2.
Drugs were prepared fresh for each experiment and stored at 4° C. between treatments. […]
(§2) The stomach was cut along the small curvature, cleansed of ingested food and the fundus was separated from the glandular portion of the stomach. […] The total length of hemorrhagic lesions, which were approximately 1 mm wide, was measured and served as an index of ulceration. […]

[5] = tested on: circular muscle strips from the gastric antrum; assay: Contractile responses to 5-HT in antral circular muscle strips of pretreated indomethacin rats; type: in vivo, rat; conditions: strips from indomethacin-treated rats pretreated with tegaserod 1 mg/kg, omeprazole 20 mg/kg; vs vehicle
[6] = tested on: circular muscle strips from the gastric antrum; assay: Contractile responses to carbachol in antral circular muscle strips of pretreated indomethacin rats; type: in vivo, rat; conditions: strips from indomethacin-treated rats pretreated with tegaserod 1 mg/kg, omeprazole 20 mg/kg; vs vehicle
[7] = tested on: myeloperoxidase (MPO) activity; assay: Mucosal myeloperoxidase activity after indomethacin; type: in vivo, rat; conditions: rats; tegaserod 1 mg/kg, omeprazole 20 mg/kg i.p. pretreatment; glandular stomach 6 h after indomethacin 50 mg/kg
Procedure: as §1
Drugs were prepared fresh for each experiment and stored at 4° C. between treatments. […] A separate control group received treatment with propylene glycol only. […]
as §2
Following dissection, the mucosal tissue was snap-frozen in liquid nitrogen and stored at −80° C. and MPO activity was assayed simultaneously. […] MPO activity was expressed as equivalent to the activity of the relative standard (ng of HRP) converting the same amount of TMB substrate for 10 min at room temperature. […]

[8] = tested on: smooth muscle muscarinic receptors; assay: Carbachol concentration-response curve in antral circular muscle strips; type: cell-based, rat; conditions: carbachol contraction
[9] = tested on: enteric nerves; type: cell-based, rat
[10] = second group not named in the sentence (indomethacin-treated rats receiving vehicle)
[11] = EFS 0.5 ms, 1-15 Hz, strips from indomethacin-treated rats pretreated with tegaserod 1 mg/kg, omeprazole 20 mg/kg
[12] = strips from vehicle pretreated rats receiving indomethacin

Structure (SMILES): NCCc1c[nH]c2ccc(O)cc12 [5-HT, 5-hydroxytryptamine creatinine sulfate]
- Hill slope [1, 10]: 0.65
- log EC50 [1, 10]: 6.839
- Hill slope ([1]; strips from naïve rats): 0.48
- log EC50 ([1]; strips from naïve rats): 6.299

Structure (SMILES): COc1ccc2[nH]c([S+]([O-])Cc3ncc(C)c(OC)c3C)nc2c1 (stereo not drawn) [Omeprazole, omeprazole]
- Regression Analysis Slope [2]: 78.8 ± 9.5

Structure (SMILES): CCCCCNC(=N)NN=Cc1c[nH]c2ccc(OC)cc12 [Tegaserod, 3-(5-methoxy-1H-indol-3-ylmethylene)-N-pentylcarbazimidamide]
- amplitude of KCl-induced contractions [3]: showed a tendency to prevent the development of hypercontractile responses to KCl, however in the effect of neither of the drugs reached statistical significance
- increase of contractile responses to EFS [2, 11]: prevented the increase of contractile responses to EFS
- linear frequency-response relationship of EFS contractile responses [2, 11]: preserved the linear frequency-response relationship; also recorded: protected the linear increase in the amplitude of contractile responses
- Indomethacin-induced hypercontractility (KCl, carbachol, 5-HT, EFS; overall statement) ([2]; antral circular muscle strips, tegaserod 1 mg/kg, omeprazole 20 mg/kg pretreatment): significantly attenuated
- Regression Analysis Slope [2]: 51.9 ± 5.1
- formation of gastric lesions (ulceration index) [4]: reduced gastric ulceration; also recorded: significantly reduced the formation of gastric lesions
- amplitude of the maximal response to 5-HT [5]: significant reduction
- maximal carbachol-induced contraction [6]: not significantly different
- mucosal MPO activity [7]: reduced gastric ulceration and mucosal inflammation; also recorded: inhibited MPO activity to levels that were not significantly different from those in naïve animals

Structure (SMILES): C[N+](C)(C)CCOC(N)=O.[Cl-] [carbachol, carbamylcholine chloride]
- Hill slope ([8]; strips from naïve rats): 1.07
- Hill slope [8, 12]: 1.11
- log EC50 [8, 12]: −7.32

Structure (SMILES): NC1=N[C@H](O)[C@H]2[C@H]3O[C@]4(O)O[C@@H]([C@@H](O)[C@@]2(N1)[C@@H]4O)[C@]3(O)CO [tetrodotoxin]
- inhibitory and excitatory responses to EFS [9]: abolished
